Test results from patent US20170334919A1, “2-((4-AMINO-3-(3-FLUORO-5-HYDROXYPHENYL)-1H-PYRAZOLO[3,4-D]PYRIMIDIN-1 -YL)METHYL)-3-(2-(TRIFLUORO-MET HYL)BENZYL)QUINAZOLIN-4(3H)-ONE DERIVATIVES AND THEIR USE AS PHOSPHOINOSITIDE 3-KINASE INHIBITORS” (RESPIVERT LTD., priority 2013, published 2017).
pEC50: −log10 of the molar value.

Legend:
[1] = test system: d-U937 cells; assay: MTT assay, cell viability; assay type: cell-based, human; details: 10 μg/mL
Method: PMA-differentiated U937 cells were pre-incubated with test compound (10 μg/mL) or vehicle for 4 hr in 5% FCS or 10% FCS for 24 hr. The supernatant was replaced with new media (200 μL) and MTT stock solution (10 μL, 5 mg/mL) was added to each well. After 1 hr incubation, the media were removed, 200 μL of DMSO was added to each well and the plates were shaken lightly for 1 hr prior to reading the absorbance at 550 nm. The percentage loss of cell viability was calculated for each well relative to vehicle (0.5% DMSO)-treatment.

[2] = test system: IFNγ-primed U937 cells; assay: Superoxide anion production assay (zymosan-induced ROS); assay type: cell-based; details: Homo sapiens, U-937; read-out: REC50, Zymosan-induced ROS production in IFNγ-primed U937 cells
Method: As a means of assessing PI3Kδ dependent cell function, superoxide anion production in IFNγ-primed U937 cells was evaluated by a chemiluminescence assay. The U937 cells (purchased from ATCC, Manassas, Va.) were maintained in RPMI 1640 (Invitrogen Ltd., Paisley, UK) with 10% FCS at 37° C. The cells were suspended at a density of 10^7cells/mL in 40 mL 10% FCS RPMI 1640, and treated with 20 μL of 100 μg/mL IFNγ solution (final concentration: 50 ng/mL), and incubated at 37° C., 5% CO2 for 4 days.
IFNγ-primed U937 cells were seeded at 0.2×10^6 cells/well in a 96-well plate, and pre-incubated with test compounds for 2 hr in starvation media (0.5% FCS RPMI1640-phenol red free). Zymosan A (10 mg) from Saccharomyses cerevisiae (ex Sigma-Aldlich) was resuspended in 1 mL of 150 mM NaCl and boiled at 100° C. for 15 min. After boiling, Zymosan particles were washed with 1 mL of PBS twice, and incubated with 0.5 mL of BioParticles™ opsonized reagents (Life technologies) for 60 min at 37° C. […] Chemiluminescence indicating released superoxide anion was measured every 15 min up to 60 min by luminometric measurement (Varioskan® Flash, Thermo-Fisher Scientific).
The data at 60 min after incubation was used for analysis. […] The relative EC50 values were calculated from the concentration-response curves generated by the serial dilutions of the test compounds using XL-Fit (idbs, Guildford, UK).

[3] = test system: LPS-induced airway neutrophilia in rats; assay: LPS-induced airway neutrophil accumulation in rats; assay type: in vivo
Method: Non-fasted rats were dosed with either vehicle or the test compound by intra-tracheal administration (dose volume 100 μL) at time points T=−2 h, −8 h, or −12 h with respect to the start of LPS treatment. The LPS solution (0.3 mg/mL) was aerosolised using a De Vibliss ultrasonic nebuliser 2000 (7 mL during 30 min). At eight hr after LPS challenge, the trachea was cannulated and bronchoalveolar lavage fluid (BALF) extracted by infusing and then withdrawing PBS (1 mL) into the lungs via the tracheal catheter. This procedure was repeated to provide approximately 2 mL of lavage fluid.
Total cell numbers in the BALF samples were measured using a Countess automated cell counter (Invitrogen). Cytospin smears of the BALF samples were prepared by centrifugation at 1200 rpm for 2 min at RT and stained using a DiffQuik stain system (Dade Behring) for differential cell counts. Cells were counted using oil immersion microscopy. Data are expressed as neutrophil number of cells per mL of BALF (mean±S.E.M).

[4] = test system: cigarette smoke-induced cell accumulation and biomarkers in murine BALF; assay: Cigarette smoke model; assay type: in vivo, A/J mice
Method: A/J mice (males, 5 weeks old) were exposed to cigarette smoke (4% cigarette smoke, diluted with compressed air) for 30 min/day for 11 days using a Tobacco Smoke Inhalation Experiment System for small animals (Model SIS-CS; Sibata Scientific Technology, Tokyo, Japan). Test substances were administered once daily for 3 days after the final cigarette smoke exposure (intra-nasal dose comprising 35 μL of solution in 50% DMSO/isotonic saline).
At 12 hr after administration of the last dose, animals were anesthetized, the trachea was cannulated and bronchial alveolar lavage (BAL) was carried out by the instillation into and then withdawal from the lungs, of PBS (100 mL/kg). Total cell numbers in the BALF samples were measured using a haemocytometer under a phase-contrast microscope. The proportions of alveolar macrophages and neutrophils were determined by FACS analysis using anti-mouse MOMA2-FITC (macrophage) or anti-mouse 7/4 (neutrophil).
Cells were suspended in PBS and were incubated with anti-MOMA2-FITC (2 μg/mL, Catalogue no SM065F, Acris Antibodies GmbH, Herford, Germany) or anti-7/4-FITC (2 μg/mL, Catalogue no CL050F, Acris Antibodies GmbH, Herford, Germany) for 30 min at 30° C., and also counterstained with propidium iodide (2 μg/mL) to allow exclusion of necrotic cells. The cells were washed with PBS, and transferred to FACS tubes. Samples was set in a flow cytometer (ALTRA II; Beckman Coulter Japan, Tokyo, Japan), and a single-parameter FL2 [PMT2] (FITC) histogram with log x-axis was plotted to illustrate relative intensity of FITC.
Data files are stored for subsequent analysis using Kaluza analysis software (ver. 1.2) to calculate the proportion of each cell type. The levels of CXCL1(KC), MCP1, TNFα, IL-17 or osteopontin in BALF were determined using Quentikine® mouse KC, MCP1, TNFα, IL-17 or osteopontin ELISA kit (R&D systems, Inc., Minneapolis, Minn., USA). The presence of malondialdehyde was measured using OxiSelect® TBARS Assay Kit (MDA Quantitation; Cell Biolabs Inc, San Diego, Calif., USA).

[5] = 0.2 mg/mL intra-tracheal, pre-dose time 12 h
[6] = CS + Compound (I) 0.02 mg/mL intra-nasal
[7] = CS + Compound (I) 0.2 mg/mL intra-nasal
[8] = CS + Compound (I) 2 mg/mL intra-nasal

Compound: COCCOCCOCC#Cc1cccc2nc(Cn3nc(-c4cc(O)cc(F)c4)c4c(N)ncnc43)n(Cc3ccccc3C(F)(F)F)c(=O)c12 [Compound (I), 2-((4-Amino-3-(3-fluoro-5-hydroxyphenyl)-1H-pyrazolo[3,4-d]pyrimidin-1-yl)methyl)-5-(3-(2-(2-methoxyethoxy)ethoxy)prop-1-yn-1-yl)-3-(2-(trifluoromethyl)benzyl)quinazolin-4(3H)-one]
- Cell Viability MTT Assay in d-U937 cells at 4 hr ([1]; 4 hr): −ve (−ve indicates a value of <30% inhibition at 10 μg/mL)
- Cell Viability MTT Assay in d-U937 cells at 24 hr ([1]; 24 hr): −ve (−ve indicates a value of <30% inhibition at 10 μg/mL)
- pEC50 [2]: 7.93
- Neutrophil numbers in BALF, % inhibition ([3]; 0.05 mg/mL intra-tracheal, pre-dose time 2 hr): 2.3 (9) %
- Neutrophil numbers in BALF, % inhibition ([3]; 0.2 mg/mL intra-tracheal, pre-dose time 2 hr): 1.6 (58) %
- Neutrophil numbers in BALF, % inhibition ([3]; 0.2 mg/mL intra-tracheal, pre-dose time 8 hr): 33%
- Neutrophil numbers in BALF (mean ± SEM) [3, 5]: 13.6 ± 2.7 ×10^5/mL
- Neutrophil numbers in BALF, % inhibition [3, 5]: 10%
- Neutrophil numbers in BALF, % inhibition ([3]; 1.0 mg/mL intra-tracheal, pre-dose time 2 hr): 73%
- Cell numbers in BAL, Macrophages, % inhibition [4, 6]: 32%
- Cell numbers in BAL, Neutrophils, % inhibition [4, 6]: 0.2 (26) %
- Cell numbers in BAL, Macrophages, % inhibition [4, 7]: 0.2 (63) %
- Cell numbers in BAL, Neutrophils, % inhibition [4, 7]: 54%
- Cell numbers in BAL, Macrophages, % inhibition [4, 8]: 0.3 (79) %
- Cell numbers in BAL, Neutrophils, % inhibition [4, 8]: 0.1 (68) %
- potency versus compound A, cigarette-smoke induced cell accumulation in murine BALF ([4]; contemporaneous study, FIG. 2): more potent inhibitor of cigarette-smoke induced cell accumulation in murine BALF than is compound A
